Here are results for two compounds from PMC10137182, “Novel CDK12/13 Inhibitors AU-15506 and AU-16770 Are Potent Anti-Cancer Agents in EGFR Mutant Lung Adenocarcinoma with and without Osimertinib Resistance” (Cancers, 2023).

One assay has as its target FGFR1 (Homo sapiens, UniProt P11362). Also on record: method as in PMID 19282669. The conditions noted are these: at 1 μM; cited from earlier work.
The next assay relates to H1975-osiR-NCI1 cells. Briefly: Cell-growth-inhibition end-point assay (CellTiter-Glo, 72 h). In kind it is cell-based. The following applies: Homo sapiens. As for the experimental part:
(§1) After 3–4 days of growth, surviving cells were trypsinized and plated again at the same initial density and the next day, the medium was replaced with a fresh growth medium, supplemented with 2× (relative to the previous concentration) of osimertinib. This process continued until osimertinib concentration reached […]. The newly generated osimertinib-resistant cells (H1975-osiR-NCI1, PC9-osiR-NCI1, HCC827-osiR-NCI1, and HCC827-osiR-NCI2) were then maintained at […] osimertinib.
(§2) Approximately 1500 cells/[…] were plated in 96-well plates with 4 wells for each treatment condition. Plates were incubated at 37 °C. For the cell growth assay, one set of cells was treated each day for 5 days with cell titer glow reagent (Promega), and luciferase luminescence (indicator of cell viability) was measured according to the manufacturer’s protocol. For the growth inhibition end-point assay, cells in 96-well plates were treated with target drugs as follows.
For orientation: ATP-based viability assays read luminescence as a measure of living cells.

The subject of a further assay is HCC827-osiR-NCI1 cells. Described as above. In kind it is cell-based. The following applies: Homo sapiens. How it is done:
as §1, §2

The test system of assay [1] is PC9-osiR-NCI1 cells. The description is as above. The conditions noted are these: Homo sapiens, read-out: IC50 (osimertinib), PC9-osiR-NCI1. It is filed as cell-based. How it is done: as §1, §2
The next assay relates to H1975 cells. Described as above. The following applies: Homo sapiens, NCI-H1975, osimertinib alone; Figure 1B. In kind it is cell-based. As for the experimental part: as §2
Another assay deals with HCC827 cells. Described as above. In kind it is cell-based. The following applies: Homo sapiens, HCC827, read-out: IC50 (osimertinib), HCC827. As for the experimental part: as §2
The subject of assay [2] is PC9 cells. Described as above. The following applies: Homo sapiens, PC-9, read-out: IC50 (osimertinib), PC9. It is filed as cell-based. As for the experimental part: as §2
In assay [3] the test system is H1975, PC9, and HCC827 parental and osimertinib-resistant cells. Briefly: Cell-growth-inhibition assays, summary over the cell panel. It is filed as cell-based. The following applies: Homo sapiens. How it is done: as §2
Assay [4] has as its system PC9-osiR-NCI1-derived tumors. Briefly: Subcutaneous xenograft mouse model. It is filed as in vivo, athymic female nude mice. How it is done: All mice xenograft studies were conducted on 5–6-week-old female athymic nude mice […] with approval from the NCI Animal Care and Use Committee (ACUC). Mice were obtained from NCI-Frederick and maintained in a pathogen-free facility at the NCI. H1975-osiR-NCI1 or PC9-osiR-NCI1 cells were cultured in RPMI (Millipore-Sigma) supplemented with 10% fetal bovine serum (Gemini) and 1% penicillin/streptomycin. All cell lines were then cultured in a humidified incubator with 5% CO2 at 37 °C. Cells were detached using 0.25% trypsin (ThermoFisher) and resuspended in PBS prior to implantation. Approximately 2 × 10^6 cells/0.1 mL/mouse were implanted subcutaneously. […] Tumor growth was monitored twice weekly by bilateral caliper measurement and tumor volume was calculated using the length × diameter^2 formula. Mice with tumor volume <200 mm^3 were randomized into vehicle or treatment groups to ensure equal distribution across groups. However, for tumor tissue collection and lysate preparation, mice with xenografts were maintained with osimertinib until tumor size reached approximately 900 mm^3 prior to drug treatment for 5 days. Vehicle (0.5% methyl cellulose), osimertinib (5 mg/kg/day), AU-15506 (5 mg/kg/day), or AU-16770 (5 mg/kg/day) were administered by oral gavage. AU-15506 or AU-16770 were prepared in a solution containing 10% PEG400, 10% D-ɑ-tocopheryl polyethylene glycol succinate (TPGS), and 0.4% Tween 80. Tumor size was measured twice weekly. Tumor volume for each mouse was converted to percent change based on a baseline volume of 100% on treatment day 0. Tumor growth inhibition was assessed by comparison of either the average tumor volume or mean changes in tumor volume for the control and treatment groups. Statistical significance was evaluated using a two-tailed Student’s t test.

In assay [5] the test system is PC9 cells. In words: Cell-cycle analysis by flow cytometry (propidium iodide). It is filed as cell-based, human. The following applies: 50 nM osimertinib or 100 nM AU-16770, 18 h. As for the experimental part: (§3) PC9 and PC9-osiR-NCI1 cells were initially grown in an RPMI-1640 medium supplemented with 10% FBS, 1% penicillin/streptomycin, and 2 […]. Following 3–4 days of growth, cells were trypsinized, replated in 10 cm Petri dishes and grown in drug-free RPMI-1640, 10% FBS, and 1% penicillin/streptomycin. Both groups of cells were treated with DMSO (vehicle), osimertinib (50 nM), or AU-16770 (100 nM) for 18 h. Cells were trypsinized, washed with PBS, fixed in 70% ethanol, washed twice in PBS, and approximately 5 × 10^5 cells/mL were incubated in […] propidium iodide/PBS and 100 units/mL RNase to label the DNA for 1 h before it was analyzed by FACS.
A general note: In flow cytometry, cells or beads pass a laser one at a time.

Assay [6] concerns PC9-osiR-NCI1 cells. The description is as above. The conditions noted are these: 50 nM osimertinib or 100 nM AU-16770, 18 h. In kind it is cell-based, human. As for the experimental part:
as §3

Where two headings read alike, the source gives them in different places.

Sequence of FGFR1 (P11362 22-822, species assumed): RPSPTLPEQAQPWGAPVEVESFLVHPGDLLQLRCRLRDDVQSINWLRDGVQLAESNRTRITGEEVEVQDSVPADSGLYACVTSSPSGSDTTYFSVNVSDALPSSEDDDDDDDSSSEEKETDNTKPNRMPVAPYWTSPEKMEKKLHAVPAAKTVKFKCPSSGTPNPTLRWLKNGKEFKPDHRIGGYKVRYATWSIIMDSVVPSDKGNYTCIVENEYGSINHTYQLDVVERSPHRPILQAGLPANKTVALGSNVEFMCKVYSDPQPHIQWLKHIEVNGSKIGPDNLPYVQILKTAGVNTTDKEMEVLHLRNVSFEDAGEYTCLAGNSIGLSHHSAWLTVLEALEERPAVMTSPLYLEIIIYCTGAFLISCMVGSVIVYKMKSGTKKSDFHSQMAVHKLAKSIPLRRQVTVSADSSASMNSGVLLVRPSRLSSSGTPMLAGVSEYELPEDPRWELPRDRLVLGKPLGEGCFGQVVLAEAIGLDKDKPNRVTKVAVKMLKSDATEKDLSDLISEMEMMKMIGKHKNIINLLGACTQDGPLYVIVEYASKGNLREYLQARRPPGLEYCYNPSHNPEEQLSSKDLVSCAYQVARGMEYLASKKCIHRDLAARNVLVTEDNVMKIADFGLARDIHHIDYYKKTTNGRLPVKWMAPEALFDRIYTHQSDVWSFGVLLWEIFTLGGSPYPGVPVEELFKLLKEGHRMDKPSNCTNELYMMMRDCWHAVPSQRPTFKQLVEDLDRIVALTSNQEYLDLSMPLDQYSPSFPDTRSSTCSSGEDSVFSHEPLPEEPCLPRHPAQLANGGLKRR

With `CN(C)C/C=C/C(=O)Nc1ccc(C(=O)N2CCC[C@@H](Nc3ncc(Cl)c(-c4c[nH]c5ccccc45)n3)C2)cc1` [THZ531], the “inhibition of FGFR1” value at FGFR1 is 82%.
Regarding `C=CC(=O)Nc1cc(Nc2nccc(-c3cn(C)c4ccccc34)n2)c(OC)cc1N(C)CCN(C)C` [osimertinib], the IC50 in the assay with H1975-osiR-NCI1 cells (NCI-H1975/OSIR, osimertinib alone, read-out: IC50, H1975-osiR cells) was 1.86 µM; in the assay on H1975-osiR-NCI1 cells (read-out: IC50 (osimertinib), H1975-osiR-NCI1) it was 1.86 µM; with HCC827-osiR-NCI1 cells (read-out: IC50 (osimertinib), HCC827-osiR-NCI1), 5.49 µM; in the assay on HCC827-osiR-NCI1 cells (read-out: IC50, HCC827-osiR cells), 5.49 µM; in the assay with PC9-osiR-NCI1 cells [1] it was 2.21 µM; in the assay on H1975 cells, 0.0468 µM. Also, the IC50 was 0.0075 µM with HCC827 cells; 0.0375 µM in the assay with PC9 cells [2]; 1.86 to 5.49 µM in [3] (read-out: IC50s, osimertinib-resistant cells (range over cell lines)); 0.00757 to 0.0468 µM in [3] (read-out: IC50s, osimertinib-sensitive cells (range over cell lines)). Further, the “effect on xenograft tumor growth” value in [4] (5 mg/kg/day oral gavage, AU-15506 arms 14 days, AU-16770 arms 28 days) is on record as “induced some tumor regression”. Besides, the “median survival (Kaplan–Meier)” value in assay [4] (5 mg/kg/day, combination = AU-16770-osimertinib (days 0–32), AU-15506-osimertinib (days 33–46)) amounted to 40 days. Besides, the “Tumor growth inhibition (TGI)” value in [4] (Day 28, 5 mg/kg/day oral gavage) was 50%. The “Cell Cycle Phase % G1, PC9” value with PC9 cells [5] is given as 67.40%. In the assay with PC9 cells [5], the “Cell Cycle Phase % G2, PC9” value is given as 24.8%. Besides, the “Cell Cycle Phase % S, PC9” value in the assay on PC9 cells [5] is recorded as 13.10%. The “Cell Cycle Phase % G1, PC9-osiR” value with PC9-osiR-NCI1 cells [6] was found to be 54.10%. In addition, the “Cell Cycle Phase % G2, PC9-osiR” value in the assay with PC9-osiR-NCI1 cells [6] came out at 1.41%. For the same compound, in the assay on PC9-osiR-NCI1 cells [6], the “Cell Cycle Phase % S, PC9-osiR” value is given as 38.40%.
